The values that follow come from patent US6582717B1, “Drug delivery composition and device” (Massachusetts Institute of Technology, priority 2000, dated 2003).

A short description of the data set: Encapsulation efficiency of drug in PLGA / cyclodextrin delivery matrix. It is filed as physicochemical.
Where [1] appears, read: PLGA and Hydroxy-propyl β-Cyclodextrin.
Where [2] appears, read: PLGA and Methylated β-Cyclodextrin.

Take `N=C(NCCCCCCNC(=N)NC(=N)Nc1ccc(Cl)cc1)NC(=N)Nc1ccc(Cl)cc1.O=C(O)[C@H](O)[C@@H](O)[C@H](O)[C@H](O)CO.O=C(O)[C@H](O)[C@@H](O)[C@H](O)[C@H](O)CO` [ChxDg, chlorhexidine digluconate]: the “Encapsulation Efficiency (%)” value runs as follows: (PGLA, no cyclodextrin) “(10.2%)”; under setting [1], “(6.1%)”; under setting [2], “(11.5%)”. For the same compound, the “Encapsulation Efficiency (amount encapsulated)” value came out at 204.7 µg (PGLA, no cyclodextrin); 121.2 µg under setting [1]; 230.3 µg under setting [2].
In the case of `[H]/N=C(\N/C(=N/[H])NCCCCCCNC(=N)NC(=N)Nc1ccc(Cl)cc1)Nc1ccc(Cl)cc1` [Chx, chlorhexidine], the “Encapsulation Efficiency (%)” value is “(9.28%)” (PGLA, no cyclodextrin); “(15.1%)” under setting [1]; “(9.02%)” under setting [2]. For the same compound, the “Encapsulation Efficiency (amount encapsulated)” value is 185.7 µg (PGLA, no cyclodextrin); 302.8 µg under setting [1]; 180.5 µg under setting [2].
